Results published in US5206148A, “Method for assaying aliphatic alcohol, aliphatic aldehyde or ω-carboxylic acid derivatives thereof” (Asahi Kasei Kogyo Kabushiki Kaisha, priority 1991, dated 1993).
Values belong to the compound of their own block, whether it stands above or below them.

Legend:
Format in all cases: biochemical, Streptomyces sp. AC 8205
[1] = system: ω-carboxyalcohol oxidase; test: Effects of reagents (detergents and metal ions) on enzyme activity; settings: None = 100
Protocol: (§1) An enzyme solution (25 μl) was added to the above mixture (0.5 ml), followed by incubation at 37° C. for exactly 10 mins., whereupon sodium dodecyl sulfate (SDS) (0.5 ml) was added thereto, then absorbance at 545 nm was measured. One unit of enzyme is defined by the activity which generates 1 μmole of hydrogen peroxide per minute.
The effects of various detergent and metal ions are shown in Table 4, in which the listed reagents show no significant effect on the enzyme. Activities of the enzyme are measured by adding each listed detergent and metal ion to the assay method described above at item 1.

[2] = system: ω-carboxyalcohol oxidase; test: Substrate specificity of ω-carboxyalcohol oxidase (peroxidase/4-aminoantipyrine H2O2 assay); parameters: Relative Activity (%): concentration or dose not given beside the values; settings: for Relative Activity (%): substrate in place of 12-hydroxydodecanoic acid, activity on 12-hydroxydodecanoic acid defined as 100, pH 7.5, 37° C., 10 mins.; for Substrate specificity: statement in words, from Table 2
Protocol: as §1
Assay method: In the assay method illustrated at item 1. hereinabove, 12-hydroxydodecanoic acid was replaced by the substrates indicated in Table 2, and the resulting relative activities were produced, defining the activity on 12-hydroxydodecanoic acid as 100.

[3] = system: ω-carboxyalcohol oxidase; test: Utilization of coenzyme (absorbance at 340 nm); settings: for A340nm: 37° C., one unit of enzyme, 12-hydroxydodecanoic acid; for Utilization of coenzyme: statement in words
Protocol: One unit of enzyme is added to the reaction mixture (2.0 ml) hereinabove and the absorbance at 340 nm and 37° C. is continuously measured.

Compound: [Cl-].[Cl-].[Mg+2] [MgCl2]
Relative Activity (%) ([1]; reagent 1 mM): 98.2%

Compound: Triton X-100
Relative Activity (%) ([1]; reagent 1.0%): 93.1%

Compound: CCCCCCCCCCCCCCO [H3 C--(CH2)13 --OH]
Relative Activity (%) [2]: 76.1%

Compound: [Cl-].[Na+] [NaCl]
Relative Activity (%) ([1]; reagent 100 mM): 95.1%

Compound: C[C@H](CCC(=O)O)[C@H]1CC[C@H]2[C@@H]3CC[C@@H]4C[C@H](O)CC[C@]4(C)[C@H]3C[C@H](O)[C@]12C [Deoxycholate]
Relative Activity (%) ([1]; reagent 10 mM): 94.9%

Compound: CCCCCCCCO [H3 C--(CH2)7 --OH]
Substrate specificity [2]: has substrate specificity | Relative Activity (%) [2]: 88.5%

Compound: CCCCCCCCCCCCCCCCO [H3 C--(CH2)15 --OH]
Relative Activity (%) [2]: 60.2%

Compound: C[C@H](CCC(=O)O)[C@H]1CC[C@H]2[C@@H]3[C@H](O)C[C@@H]4C[C@H](O)CC[C@]4(C)[C@H]3C[C@H](O)[C@]12C [Cholate]
Relative Activity (%) ([1]; reagent 10 mM): 94.9%

Compound: CCCCO [H3 C--(CH2)3 --OH]
Relative Activity (%) [2]: 76.1%

Compound: [Cl][Mn][Cl] [MnCl2]
Relative Activity (%) ([1]; reagent 1 mM): 102.4%

Compound: NC(=O)c1ccc[n+]([C@@H]2O[C@H](COP(=O)([O-])OP(=O)(O)OC[C@H]3O[C@@H](n4cnc5c(N)ncnc54)[C@H](OP(=O)(O)O)[C@@H]3O)[C@@H](O)[C@H]2O)c1 [NADP]
A340nm ([3]; 0 min.): 0.046 | A340nm ([3]; 2 mins.): 0.047 | A340nm ([3]; 4 mins.): 0.045 | A340nm ([3]; 6 mins.): 0.046 | A340nm ([3]; 8 mins.): 0.046 | A340nm ([3]; 10 mins.): 0.047 | Utilization of coenzyme [3]: No utilization

Compound: O=C(O)CCCCCCCCCCCO [HO2 C--(CH2)11 --OH, 12-hydroxydodecanoic acid]
Substrate specificity [2]: has substrate specificity | Relative Activity (%) [2]: 100%

Compound: OCC(O)CO [glycerol]
Substrate specificity [2]: no specificity | Relative Activity (%) [2]: 0%

Compound: O=C(O)CCCCCCCCCCCCCCCO [HO2 C--(CH2)15 --OH, 16-hydroxy hexadecanoic acid]
Relative Activity (%) [2]: 65.5%

Compound: CO [H3 C--OH, methanol]
Substrate specificity [2]: no specificity | Relative Activity (%) [2]: 0%

Compound: [Cl-].[K+] [KCl]
Relative Activity (%) ([1]; reagent 100 mM): 97.6%

Now from value to compound:

Relative Activity (%) ([1]; reagent 1 mM): 97.0%
Compound: [Ca+2].[Cl-].[Cl-] [CaCl]

Relative Activity (%) [2]: 59.1%
Compound: CCCCCCCCC=CCCCCCCCCO [H3 C--(CH2)7 --CH=CH--(CH2)8 --OH]

A340nm ([3]; 0 min.): 0.062 | A340nm ([3]; 2 mins.): 0.061 | A340nm ([3]; 4 mins.): 0.060 | A340nm ([3]; 6 mins.): 0.062 | A340nm ([3]; 8 mins.): 0.061 | A340nm ([3]; 10 mins.): 0.061 | Utilization of coenzyme [3]: No utilization
Compound: NC(=O)c1ccc[n+]([C@@H]2O[C@H](COP(=O)([O-])OP(=O)(O)OC[C@H]3O[C@@H](n4cnc5c(N)ncnc54)[C@H](O)[C@@H]3O)[C@@H](O)[C@H]2O)c1 [NAD]

Substrate specificity [2]: has substrate specificity | Relative Activity (%) [2]: 87.6%
Compound: CCCCCCCCCCO [H3 C--(CH2)9 --OH]

Substrate specificity [2]: has substrate specificity | Relative Activity (%) [2]: 86.1%
Compound: CCCCCCCCCCCCO [H3 C--(CH2)11 --OH]

Substrate specificity [2]: has substrate specificity | Relative Activity (%) [2]: 88.5%
Compound: CCCCCCO [H3 C--(CH2)5 --OH]

Relative Activity (%) [2]: 6.6%
Compound: CCCO [H3 C--(CH2)2 --OH]

Substrate specificity [2]: no specificity | Relative Activity (%) [2]: 0%
Compound: CCO [H3 C--CH2 --OH, ethanol]

Relative Activity (%) ([1]; reagent 100 mM): 89.0%
Compound: Cl.N [NH4 Cl]
